{
  "source": "paper PMC6563140",
  "about": "“Azaphilones from the Marine Sponge-Derived Fungus Penicillium sclerotiorum OUCMDZ-3839” (Marine Drugs, 2019)",
  "key": {"α-glycosidase [1]": {"biological_target": "α-glycosidase", "experiment": "PNPG enzyme inhibition assay, reference inhibitor", "type": "biochemical"}, "α-glycosidase [2]": {"biological_target": "α-glycosidase", "experiment": "PNPG enzyme inhibition assay", "type": "biochemical"}},
  "note": "pIC50: −log10 of the molar value.",
  "data": [
    {"smiles": "C[C@H]1O[C@H](O[C@H]2[C@H](O)[C@@H](O)[C@@H](O[C@H]3[C@H](O)[C@@H](O)C(O)O[C@@H]3CO)O[C@@H]2CO)[C@H](O)[C@@H](O)[C@@H]1N[C@H]1C=C(CO)[C@@H](O)[C@H](O)[C@H]1O", "note": "(stereo partly drawn) [acarbose]", "values": [
      {"measurement": "pIC50", "setting": "α-glycosidase [1]", "result": 2.96}
    ]},
    {"smiles": "CC[C@H](C)/C=C(C)/C=C/C1=CC2=C(Cl)C(=O)[C@]3(C)OC(=O)[C@@H](C(C)=O)[C@@H]3C2=CO1", "note": "[compound 11, isochromophilone I]", "values": [
      {"measurement": "pIC50", "setting": "α-glycosidase [2]", "result": 4.76}
    ]},
    {"smiles": "CC[C@H](C)/C=C(C)/C=C/C1=CC2=C(Cl)C(=O)[C@](C)(OC(C)=O)C(=O)C2=CN1", "note": "[compound 14, scleratioramine]", "values": [
      {"measurement": "pIC50", "setting": "α-glycosidase [2]", "result": 3.78}
    ]}
  ]
}
